In this test the target is T1, Recombinant cryAB(R120G) protein (Homo sapiens, UniProt P02511, R120G).
T1 sequence (P02511 1-175 R120G): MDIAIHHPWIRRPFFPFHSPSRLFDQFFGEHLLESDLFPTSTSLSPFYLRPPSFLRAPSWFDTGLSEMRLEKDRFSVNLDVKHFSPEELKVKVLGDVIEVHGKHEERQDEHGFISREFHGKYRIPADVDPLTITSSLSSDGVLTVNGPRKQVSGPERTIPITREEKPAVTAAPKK
The test can be described thus: Kinetic turbidity aggregation assay of recombinant cryAB(R120G). The class given is biochemical. To be noted: for inhibition at 25 µM: 25 μM compound, read-out: % Inhibition of Protein Aggregation, 25 μM cmpd; for inhibition at 25 µM / inhibition at 100 µM: 15 μM cryAB(R120G), 42° C., absorbance at 550 nm; for inhibition at 100 µM: 100 μM compound, read-out: % Inhibition of Protein Aggregation, 100 μM cmpd; for pIC50: inhibition of cryAB(R120G) protein aggregation. How it is done:
Example A-1: Kinetic Turbidity Aggregation Assay of Recombinant cryAB(R120)
Recombinant cryAB(R120G) protein was diluted to 100 μM in assay buffer (50 mM Tris, 100 mM NaCl, 5 mM DTT, 0.01% Triton X-100, 0.05% PEG-8000). Compounds were dissolved in DMSO at 10 mM then typically diluted to 2.5 mM in DMSO and serially diluted 2-fold as necessary. To a 384-well black microplate in quadruplicate was added 81 μL assay buffer, followed by 15 μL protein solution, and 4 μL compound to give a final concentration of 15 μM cryAB(R120G) protein in 4% DMSO. […] N.D. is not determined.

pIC50: −log10 of the molar value.

The inhibition is the drop in the measured response relative to a control, in per cent. A word on the pIC50: it is the IC50 on a negative log10 scale, so that one unit is a factor of ten.

Consider `Cn1cc(C(CNS(=O)(=O)c2ccc3cc[nH]c3c2)N2CC[C@H](O)C2)c2ccccc21` (stereo partly drawn) [Compound 43, N-(2-((S)-3-hydroxypyrrolidin-1-yl)-2-(1-methyl-1H-indol-3-yl)ethyl)-1H-indole-6-sulfonamide], for which the inhibition at 25 µM came out at 20% and the inhibition at 100 µM was 98.6%.
In the case of `Cn1cc(C(CNS(=O)(=O)c2ccc3cc[nH]c3c2)N2CC[C@@H](O)C2)c2ccccc21` (stereo partly drawn) [Compound 44, N-(2-((R)-3-hydroxypyrrolidin-1-yl)-2-(1-methyl-1H-indol-3-yl)ethyl)-1H-indole-6-sulfonamide], the inhibition at 25 µM worked out at 82%, the inhibition at 100 µM turned out to be 99.7% and the pIC50 was at least 5.00.
Consider `Cn1cc(C(CNS(=O)(=O)c2ccc3cc[nH]c3c2)N2CC[C@@H](F)C2)c2ccccc21` (stereo partly drawn) [Compound 45, N-(2-((R)-3-fluoropyrrolidin-1-yl)-2-(1-methyl-1H-indol-3-yl)ethyl)-1H-indole-6-sulfonamide], for which the inhibition at 25 µM amounted to 95% and the inhibition at 100 µM came to 69.3%.
`Cn1cc(C(CNS(=O)(=O)c2ccc3cc[nH]c3c2)N2CCN(CCO)CC2)c2ccccc21` (centres unmarked) [Compound 46, N-(2-(4-(2-hydroxyethyl)piperazin-1-yl)-2-(1-methyl-1H-indol-3-yl)ethyl)-1H-indole-6-sulfonamide]: the inhibition at 25 µM is -4% and the inhibition at 100 µM amounted to 63.1%.
For `COC1CCN(C(CNS(=O)(=O)c2ccc3cc[nH]c3c2)c2cn(C)c3ccccc23)CC1` (centres unmarked) [Compound 47, N-(2-(4-methoxypiperidin-1-yl)-2-(1-methyl-1H-indol-3-yl)ethyl)-1H-indole-6-sulfonamide] the same measures were 32% and 86.9%.
For the compound `C[C@H]1CCCN1C(CNS(=O)(=O)c1ccc2cc[nH]c2c1)c1cn(C)c2ccccc12` (some centres unmarked) [Compound 48], the inhibition at 25 µM is 23% and the inhibition at 100 µM came out at 76.9%.
As for `Cn1cc(C(CNS(=O)(=O)c2ccc3cc[nH]c3c2)Nc2ccncc2)c2ccccc21` (centres unmarked) [Compound 49, N-(2-(1-methyl-1H-indol-3-yl)-2-(pyridin-4-ylamino)ethyl)-1H-indole-6-sulfonamide], the inhibition at 25 µM is 47%, the inhibition at 100 µM was found to be 99.2% and the pIC50 is 4.30 to 5.00.
Turning to `Cn1cc(C(CNS(=O)(=O)c2ccc3cc[nH]c3c2)NCc2ccccc2)c2ccccc21` (centres unmarked) [Compound 50, N-(2-(benzylamino)-2-(1-methyl-1H-indol-3-yl)ethyl)-1H-indole-6-sulfonamide], the inhibition at 25 µM stood at 95%, the inhibition at 100 µM was 94.1% and the negative logarithm of the IC50 (pIC50) is at least 5.00.
On to `Cn1cc(C(CNS(=O)(=O)c2ccc3cc[nH]c3c2)Nc2ccccc2)c2ccccc21` (centres unmarked) [Compound 51, N-(2-(1-methyl-1H-indol-3-yl)-2-(phenylamino)ethyl)-1H-indole-6-sulfonamide], for which the inhibition at 25 µM came to 46% and the inhibition at 100 µM was determined as 80.4%.
For `Cn1cc(C(CNS(=O)(=O)c2ccc3cc[nH]c3c2)N2CCC(C)(C)C2)c2ccccc21` (centres unmarked) [Compound 52, N-(2-(3,3-dimethylpyrrolidin-1-yl)-2-(1-methyl-1H-indol-3-yl)ethyl)-1H-indole-6-sulfonamide], the inhibition at 25 µM came to 62% and the inhibition at 100 µM amounted to 96.2%.
Consider `C[C@@H]1CCCN1[C@H](CNS(=O)(=O)c1ccc2cc[nH]c2c1)c1cn(C)c2ccccc12` [Compound 53, N-((S)-2-(1-methyl-1H-indol-3-yl)-2-((R)-2-methylpyrrolidin-1-yl)ethyl)-1H-indole-6-sulfonamide], for which the inhibition at 25 µM amounted to 99.6%, the inhibition at 100 µM turned out to be 99.9% and the pIC50 was at least 5.00.
As to `Cn1cc(C(CNS(=O)(=O)c2ccc3cc[nH]c3c2)N2CCCC2)c2ncccc21` (centres unmarked) [Compound 54, N-(2-(1-methyl-1H-pyrrolo[3,2-b]pyridin-3-yl)-2-(pyrrolidin-1-yl)ethyl)-1H-indole-6-sulfonamide], the inhibition at 25 µM was -41% and the inhibition at 100 µM was found to be 66%.
For `C[C@@H]1CCCN1[C@@H](CNS(=O)(=O)c1ccc2cc[nH]c2c1)c1cn(C)c2ccccc12` [Compound 55, N-((R)-2-(1-methyl-1H-indol-3-yl)-2-((R)-2-methylpyrrolidin-1-yl)ethyl)-1H-indole-6-sulfonamide], the inhibition at 25 µM came out at 33%, the inhibition at 100 µM was 99.6% and the negative logarithm of the IC50 (pIC50) was 4.00 to 4.30.
On to `CN(C)C(CNS(=O)(=O)c1ccc2cc[nH]c2c1)c1cccc2cccnc12` (centres unmarked) [Compound 57, N-(2-(dimethylamino)-2-(quinolin-8-yl)ethyl)-1H-indole-6-sulfonamide], for which the inhibition at 25 µM was 25% and the inhibition at 100 µM is 82.4%.
For `Cn1cc([C@@H](CNS(=O)(=O)c2ccc3cc[nH]c3c2)N2CC[C@@H](c3ccccc3)C2)c2ccccc21` [Compound 58, N-((S)-2-(1-methyl-1H-indol-3-yl)-2-((S)-3-phenylpyrrolidin-1-yl)ethyl)-1H-indole-6-sulfonamide] the same measures were -8% and 66.7%.
For `Cn1cc([C@H](CNS(=O)(=O)c2ccc3cc[nH]c3c2)N2CC[C@@H](c3ccccc3)C2)c2ccccc21` [Compound 59, N-((R)-2-(1-methyl-1H-indol-3-yl)-2-((S)-3-phenylpyrrolidin-1-yl)ethyl)-1H-indole-6-sulfonamide] the same measures were 2% and 49.8%.
As to `Cn1cc([C@@H](CNS(=O)(=O)c2ccc3cc[nH]c3c2)N2CC[C@H](c3ccccc3)C2)c2ccccc21` [Compound 60, N-((S)-2-(1-methyl-1H-indol-3-yl)-2-((R)-3-phenylpyrrolidin-1-yl)ethyl)-1H-indole-6-sulfonamide], the inhibition at 25 µM worked out at 57% and the inhibition at 100 µM worked out at 94.9%.
For the compound `Cn1cc([C@H](CNS(=O)(=O)c2ccc3cc[nH]c3c2)N2CC[C@H](c3ccccc3)C2)c2ccccc21` [Compound 61, N-((R)-2-(1-methyl-1H-indol-3-yl)-2-((R)-3-phenylpyrrolidin-1-yl)ethyl)-1H-indole-6-sulfonamide], the inhibition at 25 µM turned out to be 1% and the inhibition at 100 µM was determined as 66.7%.
For `CC(=O)N[C@@H]1CCN(C(CNS(=O)(=O)c2ccc3cc[nH]c3c2)c2cn(C)c3ccccc23)C1` (stereo partly drawn) [Compound 62, N-((3R)-1-(2-(1H-indole-6-sulfonamido)-1-(1-methyl-1H-indol-3-yl)ethyl)pyrrolidin-3-yl)acetamide] the same measures were -39% and 53.1%.
`Cc1cc2cc[nH]c2cc1S(=O)(=O)NCC(c1cn(C)c2ccccc12)N(C)C` (centres unmarked) [Compound 63, N-(2-(dimethylamino)-2-(1-methyl-1H-indol-3-yl)ethyl)-5-methyl-1H-indole-6-sulfonamide]: the inhibition at 25 µM was 25% and the inhibition at 100 µM was 99.2%.
Regarding `C[C@H]1CCCN1[C@H](CNS(=O)(=O)c1ccc2cc[nH]c2c1)c1cn(C)c2ccccc12` [Compound 64, N-((S)-2-(1-methyl-1H-indol-3-yl)-2-((S)-2-methylpyrrolidin-1-yl)ethyl)-1H-indole-6-sulfonamide], the inhibition at 25 µM amounted to 9% and the inhibition at 100 µM came to 95.4%.
In the same order, the values of `C[C@H]1CCCN1[C@@H](CNS(=O)(=O)c1ccc2cc[nH]c2c1)c1cn(C)c2ccccc12` [Compound 65, N-((R)-2-(1-methyl-1H-indol-3-yl)-2-((S)-2-methylpyrrolidin-1-yl)ethyl)-1H-indole-6-sulfonamide] are 93% and 99.7%.
For `Cn1cc([C@@H](CNS(=O)(=O)c2ccc3cc[nH]c3c2)N2CCCC2)c2cccnc21` [Compound 66, (S)-N-(2-(1-methyl-1H-pyrrolo[2,3-b]pyridin-3-yl)-2-(pyrrolidin-1-yl)ethyl)-1H-indole-6-sulfonamide], the inhibition at 25 µM is -10% and the inhibition at 100 µM was determined as 42%.
With `Cn1cc([C@H](CNS(=O)(=O)c2ccc3cc[nH]c3c2)N2CCCC2)c2cccnc21` [Compound 67, (R)-N-(2-(1-methyl-1H-pyrrolo[2,3-b]pyridin-3-yl)-2-(pyrrolidin-1-yl)ethyl)-1H-indole-6-sulfonamide], the inhibition at 25 µM amounted to 34% and the inhibition at 100 µM is 73.3%.
For the compound `CN(C)C(CNS(=O)(=O)c1ccc2cc[nH]c2c1)c1cn(Cc2cncs2)c2ccccc12` (centres unmarked) [Compound 69, N-(2-(dimethylamino)-2-(1-(thiazol-5-ylmethyl)-1H-indol-3-yl)ethyl)-1H-indole-6-sulfonamide], the inhibition at 25 µM worked out at 58% and the inhibition at 100 µM is 100%.
As to `CN(C)C(CNS(=O)(=O)c1ccc2cc[nH]c2c1)c1cn(CC2COC2)c2ccccc12` (centres unmarked) [Compound 70, N-(2-(dimethylamino)-2-(1-(oxetan-3-ylmethyl)-1H-indol-3-yl)ethyl)-1H-indole-6-sulfonamide], the inhibition at 25 µM was determined as 76% and the inhibition at 100 µM is 99.6%.
In the same order, the values of `CN(C)C(CNS(=O)(=O)c1ccc2cc[nH]c2c1)c1cn(CC#N)c2ccccc12` (centres unmarked) [Compound 71, N-(2-(1-(cyanomethyl)-1H-indol-3-yl)-2-(dimethylamino)ethyl)-1H-indole-6-sulfonamide] are 63% and 99.3%.

The values are drawn from patent US12637425B2, “Compounds and formulations for treating ophthalmic diseases” (Visus Therapeutics, Inc., priority 2020, dated 2026).
